Results as given in patent publication US20080090805A1, “CB-1 MODULATING COMPOUNDS AND THEIR USE” (ACADIA PHARMACEUTICALS INC., priority 2005, published 2008).

target: CB1 (mutant) (Homo sapiens, UniProt P21554); assay: R-SAT functional receptor assay, CB1 (mutant, truncated after amino acid 417); type: cell-based; settings: Appendix A; R-SAT CB1; receptor form (mutant or wild-type) not stated; read-out: pIC50 (converted)
Sequence (P21554 1-417, change not shown): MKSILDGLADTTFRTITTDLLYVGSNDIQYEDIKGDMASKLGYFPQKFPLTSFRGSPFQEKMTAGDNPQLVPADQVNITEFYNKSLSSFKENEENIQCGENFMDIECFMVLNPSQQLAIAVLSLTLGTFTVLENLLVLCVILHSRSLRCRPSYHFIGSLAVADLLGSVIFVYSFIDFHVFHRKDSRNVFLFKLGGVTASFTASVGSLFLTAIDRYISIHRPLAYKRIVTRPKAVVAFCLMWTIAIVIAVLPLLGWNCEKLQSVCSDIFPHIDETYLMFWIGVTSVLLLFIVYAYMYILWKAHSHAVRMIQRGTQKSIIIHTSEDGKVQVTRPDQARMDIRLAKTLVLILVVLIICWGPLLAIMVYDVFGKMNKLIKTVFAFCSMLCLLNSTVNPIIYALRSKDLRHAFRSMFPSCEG

| Compound | IC50 |
| --- | --- |
| CCCCNC(=O)c1ccc2c(c1)N=C(c1cccc(Cl)c1)c1cc(F)ccc1S2 [drawing 829] | 12.6 nM |
| O=C(Cc1ccccc1)NNC(=O)c1ccc2c(c1)N=C(c1ccc(F)cc1)c1ccccc1S2 [drawing 840] | 158 nM |
| CONC(=O)c1ccc2c(c1)N=C(c1ccc(F)cc1)c1ccccc1S2 | 501 nM |
| O=C(NCc1ccc(F)cc1)c1ccc2c(c1)N=C(c1ccc(Cl)cc1)c1ccccc1S2 [drawing 589] | 3.16 nM |
| CC(CNC(=O)c1ccc2c(c1)N=C(N1CCCCC1)c1cc(F)ccc1S2)c1ccccc1 (stereo not drawn) [drawing 1171] | 39.8 nM |
| CCCCNC(=O)c1ccc2c(c1)N=C(c1ccc(Cl)cc1)c1ccccc1[S+]2[O-] (stereo not drawn) [drawing 666] | 63.1 nM |
| O=C(NCc1cccc(Cl)c1)c1ccc2c(c1)N=C(c1cccc(Cl)c1)c1cc(F)ccc1S2 [drawing 651] | 5.01 nM |
| CCCCN(CCCC)CCNC(=O)c1ccc2c(c1)N=C(CCC)c1ccccc1S2 | 398 nM |
| CCCCNC(=O)c1ccc2c(c1)N=C(c1cccc(Cl)c1)c1cc(Cl)ccc1S2 [drawing 997] | 25.1 nM |
| CCCCNC(=O)c1ccc2c(c1)N=C(c1ccc(Cl)cc1)c1ccc(F)cc1S2 [drawing 985] | 25.1 nM |
| O=C(NCCc1ccc(Cl)cc1)c1ccc2c(c1)N=C(N1CCCCC1)c1ccccc1S2 [drawing 775] | 10 nM |
| CCN(CCNC(=O)c1ccc2c(c1)N=C(c1ccc(Cl)cc1)c1ccccc1S2)c1ccccc1 [drawing 635] | 5.01 nM |
| O=C(c1ccc2c(c1)N=C(c1ccccc1F)c1ccccc1S2)N1CCCCC1 | 79.4 nM |
| O=C(NCc1ccccc1Br)c1ccc2c(c1)N=C(c1ccc(Cl)cc1)c1ccccc1S2 [drawing 608] | 50.1 nM |
| O=C(NC1CCCC1)c1ccc2c(c1)N=C(c1ccc(Cl)cc1)c1ccccc1S2 [drawing 782] | 100 nM |
| CCCC1=Nc2cc(C(=O)NC(C)CCc3ccccc3)ccc2Sc2ccccc21 (stereo not drawn) | 39.8 nM |
| O=C(NCCCc1ccccc1)c1ccc2c(c1)N=C(N1CCCCC1)c1ccccc1S2 [drawing 903] | 15.8 nM |
| O=C(NCCc1cccc(Cl)c1)c1ccc2c(c1)N=C(c1ccccc1)c1ccccc1S2 [drawing 1069] | 31.6 nM |
| CCCCNC(=O)c1ccc2c(c1)N=C(c1ccc(Cl)cc1)c1cc(F)ccc1S2 [drawing 1111] | 39.8 nM |
| CCCCC1=Nc2cc(C(=O)N3CCN(c4ccc(C)cc4C)CC3)ccc2Sc2ccccc21 | 316 nM |
| CC(NC(=O)c1ccc2c(c1)N=C(C1CCCCC1)c1ccccc1S2)c1ccccc1 (stereo not drawn) [drawing 634] | 63.1 nM |
| O=C(NN1CCCCC1)c1ccc2c(c1)N=C(c1ccccc1)c1ccccc1O2 | 158 nM |

More lines, now with the values ahead:

| IC50 | Compound |
| --- | --- |
| 501 nM | CONC(=O)c1ccc2c(c1)N=C(c1sccc1C)c1ccccc1S2 |
| 398 nM | CONC(=O)c1ccc2c(c1)N=C(c1cccc(Cl)c1)c1ccccc1S2 |
| 63.1 nM | COCCNC(=O)c1ccc2c(c1)N=C(c1ccc(Cl)cc1F)c1ccccc1S2 |
| 15.8 nM | CCCCNC(=O)c1ccc2c(c1)N=C(c1ccc(OC)cc1)c1ccccc1S2 [drawing 887] |
| 200 nM | O=C(NCc1cccs1)c1ccc2c(c1)N=C(c1ccccc1Cl)c1ccccc1S2 |
| 10 nM | O=C(NCc1cccs1)c1ccc2c(c1)N=C(c1ccccc1F)c1ccccc1S2 [drawing 795] |
| 15.8 nM | CCCNC(=O)c1ccc2c(c1)N=C(c1sccc1C)c1ccccc1S2 [drawing 927] |
| 63.1 nM | O=C(NN1CCCCC1)c1ccc2c(c1)N=C(c1ccc(F)cn1)c1ccccc1S2 [drawing 660] |
| 7.94 nM | CCCCNC(=O)c1ccc2c(c1)N=C(c1ccc(F)cn1)c1ccccc1S2 [drawing 709] |
| 251 nM | CCCCNC(=O)c1ccc2c(c1)N=C(c1ccccc1OC)c1ccccc1S2 |
| 39.8 nM | CC(C)NC(=O)c1ccc2c(c1)N=C(c1cccc(F)c1)c1ccccc1S2 [drawing 1155] |
| 12.6 nM | COCCNC(=O)c1ccc2c(c1)N=C(c1cccc(Cl)c1)c1ccccc1S2 [drawing 849] |
| 39.8 nM | CC(C)CNC(=O)c1ccc2c(c1)N=C(c1ccc(Cl)cc1)c1ccc(Cl)cc1S2 [drawing 1113] |
| 158 nM | O=C(NCCc1cccnc1)c1ccc2c(c1)N=C(c1ccccc1Cl)c1ccccc1S2 |
| 7.94 nM | CCCCNC(=O)c1ccc2c(c1)N=C(c1cccc(Cl)c1)c1ccccc1S2 [drawing 737] |
| 20 nM | CC(C)CCNC(=O)c1ccc2c(c1)N=C(c1ccccn1)c1ccccc1S2 [drawing 967] |
| 79.4 nM | O=C(NCCc1ccccn1)c1ccc2c(c1)N=C(c1ccc(Br)cc1)c1ccccc1S2 [drawing 734] |
| 31.6 nM | CCCCN(C)C(=O)c1ccc2c(c1)N=C(c1ccc(F)cc1)c1ccccc1S2 |
| 3.98 nM | O=C(NCc1cccc(Cl)c1)c1ccc2c(c1)N=C(c1cccc(Cl)c1)c1ccccc1S2 [drawing 603] |
| 100 nM | CCCCN(C)C(=O)c1ccc2c(c1)N=C(c1ccc(OC)cc1)c1ccccc1S2 |
| 10 nM | CCOCCNC(=O)c1ccc2c(c1)N=C(c1cccc(Br)c1)c1ccccc1S2 [drawing 789] |
| 20 nM | O=C(NCc1ccncc1)c1ccc2c(c1)N=C(c1cccc(Br)c1)c1ccccc1S2 [drawing 977] |

same assay, conditions: Appendix A; R-SAT CB1; receptor form not stated; relative to SR141716 (100%)

| % Inhibition | Compound |
| --- | --- |
| 103% | O=C(NN1CCCCC1)c1ccc2c(c1)N=C(c1ccc(Cl)cc1)c1ccccc1S2 [drawing 863] |
| 87% | CC(NC(=O)c1ccc2c(c1)N=C(C1CCCCC1)c1ccccc1S2)c1ccccc1 (stereo not drawn) [drawing 634] |

same assay, conditions: Appendix A; R-SAT CB1; receptor form not stated; relative to SR141716 (100%); read-out: % Inhibition

| Compound | Emax |
| --- | --- |
| CCCCNC(=O)c1ccc2c(c1)N=C(c1cccc(Cl)c1)c1cc(F)ccc1S2 [drawing 829] | 105% |
| O=C(NCCc1ccncc1)c1ccc2c(c1)N=C(c1cccc(F)c1)c1ccccc1S2 [drawing 1097] | 106% |
| O=C(Cc1ccccc1)NNC(=O)c1ccc2c(c1)N=C(c1ccc(F)cc1)c1ccccc1S2 [drawing 840] | 98% |
| CONC(=O)c1ccc2c(c1)N=C(c1ccc(F)cc1)c1ccccc1S2 | 65% |
| O=C(NCc1ccc(F)cc1)c1ccc2c(c1)N=C(c1ccc(Cl)cc1)c1ccccc1S2 [drawing 589] | 106% |
| CC(CNC(=O)c1ccc2c(c1)N=C(N1CCCCC1)c1cc(F)ccc1S2)c1ccccc1 (stereo not drawn) [drawing 1171] | 102% |
| CCCCNC(=O)c1ccc2c(c1)N=C(c1ccc(Cl)cc1)c1ccccc1[S+]2[O-] (stereo not drawn) [drawing 666] | 97% |
| O=C(NCc1cccc(Cl)c1)c1ccc2c(c1)N=C(c1cccc(Cl)c1)c1cc(F)ccc1S2 [drawing 651] | 107% |
| O=C(NCCC(F)(F)F)c1ccc2c(c1)N=C(c1ccc(Cl)cc1)c1ccccc1S2 [drawing 705] | 91% |
| CCCCN(CCCC)CCNC(=O)c1ccc2c(c1)N=C(CCC)c1ccccc1S2 | 109% |
| CCCCNC(=O)c1ccc2c(c1)N=C(c1cccc(Cl)c1)c1cc(Cl)ccc1S2 [drawing 997] | 110% |
| CCCCNC(=O)c1ccc2c(c1)N=C(c1ccc(Cl)cc1)c1ccc(F)cc1S2 [drawing 985] | 109% |
| O=C(NCc1ccco1)c1ccc2c(c1)N=C(c1cccc(F)c1)c1ccccc1S2 [drawing 693] | 104% |
| CC(C)CCNC(=O)c1ccc2c(c1)N=C(c1cccc(F)c1)c1ccccc1S2 [drawing 671] | 100% |
| O=C(NCCc1ccc(Cl)cc1)c1ccc2c(c1)N=C(N1CCCCC1)c1ccccc1S2 [drawing 775] | 113% |
| CCN(CCNC(=O)c1ccc2c(c1)N=C(c1ccc(Cl)cc1)c1ccccc1S2)c1ccccc1 [drawing 635] | 102% |
| O=C(c1ccc2c(c1)N=C(c1ccccc1F)c1ccccc1S2)N1CCCCC1 | 73% |
| O=C(NCc1ccccc1Br)c1ccc2c(c1)N=C(c1ccc(Cl)cc1)c1ccccc1S2 [drawing 608] | 94% |
| O=C(NC1CCCC1)c1ccc2c(c1)N=C(c1ccc(Cl)cc1)c1ccccc1S2 [drawing 782] | 105% |
| CCCC1=Nc2cc(C(=O)NC(C)CCc3ccccc3)ccc2Sc2ccccc21 (stereo not drawn) | 95% |
| O=C(NCCCc1ccccc1)c1ccc2c(c1)N=C(N1CCCCC1)c1ccccc1S2 [drawing 903] | 104% |
| O=C(NCCC(F)(F)F)c1ccc2c(c1)N=C(c1ccsc1)c1ccccc1S2 [drawing 607] | 97% |
| O=C(NCCc1cccc(Cl)c1)c1ccc2c(c1)N=C(c1ccccc1)c1ccccc1S2 [drawing 1069] | 102% |
| CCCCNC(=O)c1ccc2c(c1)N=C(c1ccc(Cl)cc1)c1cc(F)ccc1S2 [drawing 1111] | 98% |
| CCCCC1=Nc2cc(C(=O)N3CCN(c4ccc(C)cc4C)CC3)ccc2Sc2ccccc21 | 104% |
| O=C(NCc1ccc(F)cc1)c1ccc2c(c1)N=C(c1cccc(Cl)c1)c1ccccc1S2 [drawing 715] | 97% |
| O=C(NN1CCCCC1)c1ccc2c(c1)N=C(c1ccccc1)c1ccccc1O2 | 57% |

Other lines, results leading:

| Emax | Compound |
| --- | --- |
| 45% | CONC(=O)c1ccc2c(c1)N=C(c1sccc1C)c1ccccc1S2 |
| 89% | CONC(=O)c1ccc2c(c1)N=C(c1cccc(Cl)c1)c1ccccc1S2 |
| 104% | COCCNC(=O)c1ccc2c(c1)N=C(c1ccc(Cl)cc1F)c1ccccc1S2 |
| 112% | CCCCNC(=O)c1ccc2c(c1)N=C(c1ccc(OC)cc1)c1ccccc1S2 [drawing 887] |
| 87% | O=C(NCc1cccs1)c1ccc2c(c1)N=C(c1ccccc1Cl)c1ccccc1S2 |
| 114% | O=C(NCc1cccs1)c1ccc2c(c1)N=C(c1ccccc1F)c1ccccc1S2 [drawing 795] |
| 99% | CCCNC(=O)c1ccc2c(c1)N=C(c1sccc1C)c1ccccc1S2 [drawing 927] |
| 92% | O=C(NN1CCCCC1)c1ccc2c(c1)N=C(c1ccc(F)cn1)c1ccccc1S2 [drawing 660] |
| 101% | CCCCNC(=O)c1ccc2c(c1)N=C(c1ccc(F)cn1)c1ccccc1S2 [drawing 709] |
| 80% | CCCCNC(=O)c1ccc2c(c1)N=C(c1ccccc1OC)c1ccccc1S2 |
| 104% | CC(C)NC(=O)c1ccc2c(c1)N=C(c1cccc(F)c1)c1ccccc1S2 [drawing 1155] |
| 110% | COCCNC(=O)c1ccc2c(c1)N=C(c1cccc(Cl)c1)c1ccccc1S2 [drawing 849] |
| 106% | CC(C)CNC(=O)c1ccc2c(c1)N=C(c1ccc(Cl)cc1)c1ccc(Cl)cc1S2 [drawing 1113] |
| 76% | O=C(NCCc1cccnc1)c1ccc2c(c1)N=C(c1ccccc1Cl)c1ccccc1S2 |
| 87% | CCONC(=O)c1ccc2c(c1)N=C(c1ccc(Cl)c(Cl)c1)c1ccccc1S2 [drawing 806] |
| 98% | CCCCNC(=O)c1ccc2c(c1)N=C(c1cccc(Cl)c1)c1ccccc1S2 [drawing 737] |
| 89% | O=C(NCCc1ccccn1)c1ccc2c(c1)N=C(c1ccc(Br)cc1)c1ccccc1S2 [drawing 734] |
| 87% | Cc1cccnc1C1=Nc2cc(C(=O)NCC(C)C)ccc2Sc2ccccc21 |
| 107% | CCCCN(C)C(=O)c1ccc2c(c1)N=C(c1ccc(F)cc1)c1ccccc1S2 |
| 112% | O=C(NCc1cccc(Cl)c1)c1ccc2c(c1)N=C(c1cccc(Cl)c1)c1ccccc1S2 [drawing 603] |
| 97% | CCCCN(C)C(=O)c1ccc2c(c1)N=C(c1ccc(OC)cc1)c1ccccc1S2 |
| 119% | CCOCCNC(=O)c1ccc2c(c1)N=C(c1cccc(Br)c1)c1ccccc1S2 [drawing 789] |
| 95% | O=C(NCc1ccncc1)c1ccc2c(c1)N=C(c1cccc(Br)c1)c1ccccc1S2 [drawing 977] |

same assay, conditions: pIC50, Appendix A; R-SAT CB1; receptor form (mutant or wild-type) not stated

| Compound | IC50 |
| --- | --- |
| O=C(NCCc1ccncc1)c1ccc2c(c1)N=C(c1cccc(F)c1)c1ccccc1S2 [drawing 1097] | 31.6 nM |
| O=C(NCCC(F)(F)F)c1ccc2c(c1)N=C(c1ccc(Cl)cc1)c1ccccc1S2 [drawing 705] | 7.94 nM |
| O=C(NCc1ccco1)c1ccc2c(c1)N=C(c1cccc(F)c1)c1ccccc1S2 [drawing 693] | 6.31 nM |
| CC(C)CCNC(=O)c1ccc2c(c1)N=C(c1cccc(F)c1)c1ccccc1S2 [drawing 671] | 6.31 nM |
| O=C(NCCC(F)(F)F)c1ccc2c(c1)N=C(c1ccsc1)c1ccccc1S2 [drawing 607] | 3.98 nM |
| O=C(NCc1ccc(F)cc1)c1ccc2c(c1)N=C(c1cccc(Cl)c1)c1ccccc1S2 [drawing 715] | 7.94 nM |
